Peptide text beside a SMILES is read from it.
How the values were obtained:
[1] = Ionization constant was determined; type: physicochemical
[2] = Inhibition of specific brain peptidase
[3] = Inhibition of Cl- dependent binding sites of AP4 receptor labeled with [3H]- glutamic acid

Ki [3] [nM] | Structure (SMILES) | pKa [1] | IC50 [2] [nM]
 | NC(CN1CC(=O)NC1=O)C(=O)O (centres undefined) | 8.2 | 
 | N[C@@H](Cn1oc(=O)[nH]c1=O)C(=O)O [QUISQUALATE] | 4.2 | 480
420 | CC(=O)NC(CC(=O)O)C(=O)NC(CCC(=O)O)C(=O)O (stereo not drawn) (Ac-Asp-Glu-OH; configuration not given here) |  | 

Source: ChEMBL document CHEMBL1123994, “Excitatory amino acid neurotransmission” (J Med Chem, 1988)
